Holding throughout (type): cell-based, human
The test system of one assay is neutrophil elastase. Description: Quantification of neutrophil elastase (NETosis). Particulars: fresh whole blood stimulated, positive control for NETs, n=7. Here is the method: Blood samples were mixed gently, warmed to 37° C. for four hours for the release of NETs contents into the plasma, and diluted with PBS to a final blood volume fraction of 25% before centrifugation at 2000×g for 5 minutes. The supernatant was then carefully transferred to a new centrifuge tube and stored at −80° C. for further processing. The level of neutrophil elastase was quantified using the Neutrophil Elastase Activity Assay Kit (Cayman Chemical Company) according to manufacturer's protocol, using a SpectraMax M5 spectrometer (Molecular Devices). As a positive control for NETosis, phorbol myristate acetate (100 nM) was added to fresh whole blood prior to incubation.

The next assay has as its system platelets. Put plainly: Platelet activation surface markers by imaging flow cytometry. As to conditions: dosages 0.01-0.5 ug/mL, 20 min at 4 or 22° C. Here is the method:
Platelet inhibitors used include: Tirofiban (Sigma), Eptifibatide (Tocris), Clopidogrel (Sigma), KF38789 (Tocris). In all experimental conditions that involved treatment with platelet inhibitors (e.g., tirofiban, eptifibatide, etc.), these compounds were added to blood samples and mixed by gentle rocking for 10 minutes before the sample was processed for other assays or storage. The addition of EDTA, unless otherwise stated, occurred 15 minutes prior to the assay (i.e., EDTA was not present during sample storage).
Platelet activation and cell viability were determined using the Image Stream Mark II imaging flow cytometer (Amnis Corporation) equipped with a 40× objective and the 405, 488, 642 nm lasers. For the platelet activation panel, 1 μl of whole blood was combined with PBS and fluorescently labeled antibodies as follows; Pacific Blue conjugated CD41 (1:150; clone HIP8; BioLegend), FITC conjugated PAC-1 (1:10; clone PAC-1 (RUO (GMP)); BD Pharmingen), PE conjugated CD62P (1:100; clone AK-4; BD Pharmingen), APC conjugated CD63 (1:10; clone H5C6; Biolegend), PE/Cy7 conjugated CD45 (1:100; clone HI30; Abcam). […]

Assay [1] has as its system neutrophils. Description: Apoptosis/necrosis inhibitors as preservatives of isolated neutrophils. Here is the method:
Evaluation of apoptosis and necrosis inhibitors as neutrophil preservatives. Neutrophils were isolated by negative selection from healthy donor whole blood using the recommended protocol and reagents from the Human Neutrophil Enrichment Kit (StemCell Technologies; Vancouver, British Columbia, Canada). Yield was determined by counting particles from 8-30 μm in diameter using a Coulter Counter Z1 (Beckman Coulter; Brea, Calif.). Neutrophils were stored in IMDM+20% FBS and were either untreated (control) or treated with 1.25 μL/mL DMSO (Sigma-Aldrich; St. Louis, Mo.), 5 μM Q-VD-OPh (Apex Bio; Houston, Tex.), 50 μM Necrostatin-1 (Cayman Chemical; Ann Arbor, Mich.), or 50 μM Boc-D-FMK Apex Bio; Houston, Tex.). Matched samples were processed immediately after isolation and after 24, 48, 72, and 96 hours of storage at 21° C. Samples were stained with R-phycoerythrin-conjugated Annexin V, SYTOX Green, Hoechst 33342 (all Life Technologies; Carlsbad, Calif.), and allophycocyanin-conjugated CD45 (Huntington Valley) and imaged using an ImageStream^X Mk. II Imaging Flow Cytometer (Amnis Corporation; Seattle, Wash.).

The subject of assay [2] is neutrophils. Description: Neutrophil migration toward fMLP gradient (microfluidic device). The procedure:
To determine whether neutrophils stored under these conditions were still capable of migrating toward an fMLP gradient, we utilized a microfluidic device previously developed for this purpose. Briefly, fMLP, a neutrophil chemoattractant, is added to two outer chambers. The outer chambers are connected to an inner chamber through a series of channels, creating a gradient. The inner chamber was then filled with neutrophils. Freshly isolated neutrophils were immediately evaluated to establish a time 0 migratory response, then the preserved neutrophils were examined after 72 and 96 h ambient storage for comparison.

“Also recorded” adds a separate entry of the source.

The molecule `CCCCCCCCCCCCCC(=O)O[C@@H]1[C@@H](C)[C@@]2(O)[C@@H](C=C(CO)C[C@]3(O)C(=O)C(C)=C[C@@H]23)[C@@H]2C(C)(C)[C@]12OC(C)=O` [phorbol myristate acetate] returned a neutrophil elastase level with neutrophil elastase of 81.4±64.4 mU/mL.

Regarding `CCCCS(=O)(=O)N[C@@H](Cc1ccc(OCCCCC2CCNCC2)cc1)C(=O)O` [Tirofiban], the “platelet activation (PAC-1, CD62/p-selectin) of cold treated platelets” value in the assay on platelets was “minimally activated”.

On to `CC(C)[C@H](NC(=O)c1ccc2ccccc2n1)C(=O)N[C@@H](CC(=O)O)C(=O)COc1c(F)cccc1F` [Q-VD-OPh, (3S)-5-(2,6-difluorophenoxy)-3-[[(2S)-3-methyl-2-(quinoline-2-carbonylamino)butanoyl]amino]-4-oxopentanoic acid], for which the “CD45 biomarker expression of neutrophils” value in the assay with neutrophils [1] (5 μM, 96 h ambient storage) is “effectively preserved CD45 biomarker expression”. Further, the “apoptosis inhibition in neutrophils” value in the assay on neutrophils [1] (5 μM, IMDM+20% FBS, ambient storage up to 96 h) is recorded as “highly effective at apoptosis inhibition”. The “stability of treated neutrophils under ambient storage” value with neutrophils [1] (ambient storage conditions) lay within 72 to 96 h. For the same molecule, the “migratory response to fMLP” value with neutrophils [2] (after 72 h ambient storage, vs freshly isolated neutrophils) was “comparable to that of the freshly isolated neutrophils; also recorded: nearly indistinguishable from the migratory response of the freshly isolated neutrophils”. The “migratory speed toward fMLP gradient” value in the assay on neutrophils [2] (after ambient storage, vs fresh neutrophils) is “identical to the fresh neutrophils; also recorded: maintained comparable speed to freshly isolated neutrophils”.

The record behind these values is patent US11612163B2, “Stabilization of whole blood samples” (The General Hospital Corporation, priority 2014, dated 2023).
